Laboratory results: PMC9137581, “Identification of a Novel Class of Anti-Melanogenic Compounds, (Z)-5-(Substituted benzylidene)-3-phenyl-2-thioxothiazolidin-4-one Derivatives, and Their Reactive Oxygen Species Scavenging Activities” (Antioxidants, 2022)
Where two headings read alike, the source gives them in different places. Each block holds one molecule with its values, some of them ahead of it.

Tests used:
mushroom tyrosinase [1] = details: read-out: IC50 against mushroom tyrosinase, cited from earlier work
[2] = test system: UVB-irradiated HRM2 hairless mice; parameters: method as in PMID 30554432; details: ref [31]; cited from earlier work
[3] = DPPH radical scavenging activity assay; details: 1 mM, 30 min in the dark
Protocol: The effects of the (Z)-BPTT analogs 1–13 on DPPH radical scavenging activities were investigated as previously described with slight modification. Briefly, 180 μL of 0.2 mM DPPH in methanol was added to 96-well plates and then 20 μL of one of the (Z)-BPTT analogs 1–13 (10 mM in DMSO) or the positive control (10 mM L-ascorbic acid in distilled water) was added and mixed. The 96-well plates were incubated in the dark for 30 min and then the well optical densities were measured at 517 nm using a VersaMax™ microplate reader (Molecular Devices, Sunnyvale, CA, USA). All of these experiments were performed independently in triplicate. The DPPH radical scavenging activities of the analogs were calculated using the following formula:Scavenging activity (%) = (Ac − As) × 100/Ac where Ac is the optical density of the non-treated control and As is the optical density of the tested material.
The DPPH (2,2-diphenyl-1-picrylhydrazyl) radical scavenging abilities of the (Z)-BPTT analogs were investigated using L-ascorbic acid (vitamin C) as a positive control. The final concentrations of the analogs and of the positive control in the test samples and in the DPPH methanol solution were 1 and 0.18 mM, respectively. The scavenging activities of the analogs were assessed by measuring their optical densities at 517 nm after standing the samples in the dark for 30 min.

mushroom tyrosinase [4] = biological target: T1, mushroom tyrosinase (Agaricus bisporus, UniProt C7FF04); experiment: Mushroom tyrosinase inhibition assay (L-tyrosine substrate); type: biochemical; details: L-tyrosine substrate; means ± SEMs of triplicate determinations
T1 construct: purchased Sigma-Aldrich
T1 sequence (C7FF04 1-392 limits assumed): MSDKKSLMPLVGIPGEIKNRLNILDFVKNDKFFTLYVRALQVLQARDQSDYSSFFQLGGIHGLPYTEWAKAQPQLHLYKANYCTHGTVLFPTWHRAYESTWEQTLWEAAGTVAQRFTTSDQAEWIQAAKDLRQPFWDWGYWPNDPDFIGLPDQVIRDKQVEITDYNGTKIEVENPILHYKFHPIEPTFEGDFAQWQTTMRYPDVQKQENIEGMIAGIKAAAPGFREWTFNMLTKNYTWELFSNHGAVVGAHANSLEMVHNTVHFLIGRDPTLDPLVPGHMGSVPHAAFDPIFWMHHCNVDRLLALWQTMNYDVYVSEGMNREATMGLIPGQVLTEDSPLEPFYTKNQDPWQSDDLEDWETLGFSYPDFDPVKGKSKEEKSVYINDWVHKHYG
Protocol: In order to examine the inhibitory effect of the (Z)-BPTT analogs on tyrosinase activity, commercially available mushroom tyrosinase (Sigma-Aldrich, St. Louis, MO, USA) was used. The mushroom tyrosinase-inhibitory activities of the analogs were determined as described previously with modification. Briefly, 20 µL (20 units) of an aqueous mushroom tyrosinase solution was added to each well of a 96-well microplate containing 170 µL of a substrate mixture consisting of 345 μM of L-tyrosine solution, 17.2 mM phosphate buffer (pH 6.5), and 10 µL of a (Z)-BPTT analog solution at different concentrations or 10 µL of a kojic acid solution (2, 10, or 50 μM). After incubating the assay mixtures for 30 min at 37 °C, the remaining tyrosinase activities were calculated from the amounts of dopachrome that were formed as determined by measuring their absorbance at 492 nm using a microplate reader (VersaMax™, Molecular Devices, Sunnyvale, CA, USA). The curves of the IC50 values that were derived from the X-axis of the inhibitor concentration versus the amount of product that was produced were determined by aligning the dose–response curve with the Y-axis. Inhibition experiments were performed in triplicate using three to six different concentrations of the (Z)-BPTT analogs or kojic acid. Log–linear curves and their equations were determined by using inhibition percentages at three to six analog concentrations. The individual IC50 values were determined by reading the concentrations on the Y-axis at 50% inhibition. The results are the means of three independent experiments.
The tyrosinase-inhibitory activities were screened against mushroom tyrosinase using L-tyrosine as a substrate, as previously described. Kojic acid, a representative tyrosinase inhibitor, was used as a positive control. […]. All 13 of the (Z)-BPTT analogs inhibited tyrosinase activity in a concentration-dependent manner. The IC50 values are shown in Table 2, along with the analog substitutions.

[5] = ABTS free radical scavenging activity assay; details: 100 µM, 2 min in the dark
Protocol: ABTS free radical scavenging activity was used to evaluate the antioxidant activities of analogs 1–13, as previously described. […] This ABTS free radical solution was then diluted with absolute methanol to an absorbance of 0.70 ± 0.02 at 734 nm. Aliquots (10 µL) of the test samples (10% DMSO + 90% EtOH) were added at a final concentration of 100 µM to 90 µL of the diluted ABTS free radical solution and incubated for 2 min in the dark at room temperature. Absorbances were then measured at 734 nm using a VersaMax™ microplate reader (Molecular Devices, Sunnyvale, CA, USA). The ABTS free radical scavenging activities of the test analogs were calculated using the following formula:Scavenging activity (%) = (Ac − As) × 100/Ac where Ac is the optical density of the non-treated control and As is the optical density of the tested material.
The effects of analogs 1–13 on ABTS (2,2′-azino-bis(3-ethylbenzothiazoline-6-sulfonic acid)) free radical scavenging activity were investigated using trolox as a positive reference control. The concentrations of the analogs and trolox in the test samples were 100 µM. The free radical scavenging activities were assessed by measuring the optical densities at 734 nm after standing in the dark for 2 min. […] Analogs 7–10, with no hydroxyl groups on the β-phenyl ring, had weak ABTS and DPPH radical scavenging activities.

[6] = test system: B16F10 murine melanoma cells; parameters: method as in PMID 34356311; details: ref [32]; cited from earlier work
B16F10 cells = experiment: Melanin content assay in α-MSH plus IBMX-stimulated cells; type: cell-based, murine; details: 48 h, B16F10 cells
Protocol: Briefly, B16F10 cells were seeded at a density of 1 × 10^5 cells per well in 6-well plates and allowed to adhere to the well bases under the same conditions that were used for cell culturing. […] In order to determine the melanin contents, the B16F10 cells that were exposed to α-MSH and IBMX for 48 h were rinsed with PBS twice and incubated in 200 µL of 1 N NaOH solution containing 10% dimethyl sulfoxide (DMSO) for 1 h at 60 °C. The cell lysates were transferred to a 96-well plate and the absorbances at 405 nm were measured using a microplate reader (VersaMax™, Molecular Devices, Sunnyvale, CA, USA). These experiments were performed individually in triplicate. B16F10 cells were seeded in 6-well culture plates and pretreated with analogs 1, 3, and 6 at concentrations of 0, 5, 10, or 20 µM and with analog 2 at 0, 2.5, 5, or 10 µM for 1 h. α-Melanocyte-stimulating hormone (α-MSH; 1 µM) and 3-isobutyl-1-methylxanthine (IBMX; 200 µM) were added sequentially in order to enhance melanin production. After incubation for 48 h at 37 °C, the melanin contents were assessed by measuring the well optical densities at 405 nm using a microplate reader. Kojic acid (10 or 20 µM) was used as a positive control.

SMILES: COc1ccc(/C=C2\SC(=S)NC2=O)cc1O [5-HMT, (Z)-5-(3-hydroxy-4-methoxybenzylidene)-2-thioxothiazolidin-4-one]
IC50 (mushroom tyrosinase [1]; ref [31]): 18.1 ± 1 µM | skin effect in vivo [2]: skin-lighting effect

IC50 (mushroom tyrosinase [4]): 80 ± 3.3 µM
SMILES: COc1cc(/C=C2\SC(=S)N(c3ccccc3)C2=O)ccc1O [Analog 4, (Z)-5-(4-Hydroxy-3-methoxybenzylidene)-3-phenyl-2-thioxothiazolidin-4-one]
DPPH radical scavenging activity [3]: 78.7% | ABTS free radical scavenging activity [5]: 61.5%

IC50 (mushroom tyrosinase [4]): > 200 µM
SMILES: CCOc1cc(/C=C2\SC(=S)N(c3ccccc3)C2=O)ccc1O [Analog 5, (Z)-5-(3-Ethoxy-4-hydroxybenzylidene)-3-phenyl-2-thioxothiazolidin-4-one]
DPPH radical scavenging activity [3]: 77.5% | ABTS free radical scavenging activity [5]: 51.2%

IC50 (mushroom tyrosinase [4]): > 200 µM
SMILES: COc1ccc(/C=C2\SC(=S)N(c3ccccc3)C2=O)cc1 [Analog 7, (Z)-5-(4-Methoxybenzylidene)-3-phenyl-2-thioxothiazolidin-4-one]

IC50 (mushroom tyrosinase [4]): 94.3 ± 7.7 µM
SMILES: COc1ccc(/C=C2\SC(=S)N(c3ccccc3)C2=O)cc1OC [Analog 8, (Z)-5-(3,4-Dimethoxybenzylidene)-3-phenyl-2-thioxothiazolidin-4-one]

IC50 (mushroom tyrosinase [4]): 22.1 ± 4.23 µM
SMILES: COc1ccc(/C=C2\SC(=S)N(c3ccccc3)C2=O)c(OC)c1 [Analog 9, (Z)-5-(2,4-Dimethoxybenzylidene)-3-phenyl-2-thioxothiazolidin-4-one]

IC50 (mushroom tyrosinase [4]): > 200 µM
SMILES: COc1cc(/C=C2\SC(=S)N(c3ccccc3)C2=O)cc(OC)c1OC [Analog 10, (Z)-3-Phenyl-2-thioxo-5-(3,4,5-trimethoxybenzylidene)thiazolidin-4-one]

IC50 (mushroom tyrosinase [4]): > 200 µM
SMILES: COc1cc(/C=C2\SC(=S)N(c3ccccc3)C2=O)cc(OC)c1O [Analog 11, (Z)-5-(4-Hydroxy-3,5-dimethoxybenzylidene)-3-phenyl-2-thioxothiazolidin-4-one]
ABTS free radical scavenging activity [5]: 57.2%

IC50 (mushroom tyrosinase [4]): 65.5 ± 9.4 µM
SMILES: O=C1/C(=C/c2ccc(O)c(Br)c2)SC(=S)N1c1ccccc1 [Analog 12, (Z)-5-(3-Bromo-4-hydroxybenzylidene)-3-phenyl-2-thioxothiazolidin-4-one]
ABTS free radical scavenging activity (in words) [5]: did not influence

IC50 (mushroom tyrosinase [4]): 78.8 ± 8.63 µM
SMILES: O=C1/C(=C/c2cc(Br)c(O)c(Br)c2)SC(=S)N1c1ccccc1 [Analog 13, (Z)-5-(3,5-Dibromo-4-hydroxybenzylidene)-3-phenyl-2-thioxothiazolidin-4-one]
ABTS free radical scavenging activity (in words) [5]: slightly decreased

SMILES: O=c1/c(=C/c2ccc(O)cc2O)sc2nc3ccccc3n12 [Compound I, (Z)-2-(2,4-dihydroxybenzylidene)benzo[4,5]imidazo[2,1-b]thiazol-3(2H)-one]
IC50 (mushroom tyrosinase [1]; ref [32]): 5 ± 0.38 µM | effects in cells [6]: anti-tyrosinase and anti-melanogenic effects

SMILES: O=C1O[C@H]([C@@H](O)CO)C(O)=C1O [L-ascorbic acid, reference compound]
DPPH radical scavenging activity [3]: 96.9%

SMILES: O=c1cc(CO)occ1O [kojic acid, reference compound]
reduction of α-MSH plus IBMX-induced increase in melanin content (B16F10 cells; 10 µM): 21.8% | reduction of α-MSH plus IBMX-induced increase in melanin content (B16F10 cells; 20 µM): 22.9%

SMILES: Cc1c(C)c2c(c(C)c1O)CCC(C)(C(=O)O)O2 (stereo not drawn) [trolox, reference compound]
ABTS free radical scavenging activity [5]: 99.8%
